30 compounds from patent publication US20220073532A1, “INHIBITORS OF CGAS ACTIVITY AS THERAPEUTIC AGENTS” (BELLBROOK LABS, LLC, priority 2019, published 2022) can be followed below.

The assay deals with cGAS (Homo sapiens, UniProt Q8N884). The experiment in a line: cGAS enzymatic assay (FP/TR-FRET detection of cGAMP). The format is biochemical. More on the design: The cGAS assay was used to screen 100,000 compounds with full-length human cGAS; 6xHis; made in house. The conditions noted are these: cGAS (30 nM). The method, then: Some exemplary compounds of the disclosure were tested for inhibition of cGAS (30 nM). The results are provided in Table 1 where “A” indicates an IC50 of less than 100 nM, “B” indicates an IC50 of greater than 100 nM and less than 500 nM, “C” indicates an IC50 of greater than 500 nM and less than 1 μM, “D” indicates an IC50 of greater than 1 μM and less than 10 μM, and “E” indicates an IC50 of greater than 10 μM.
cGAS, sequence (Q8N884 whole entry): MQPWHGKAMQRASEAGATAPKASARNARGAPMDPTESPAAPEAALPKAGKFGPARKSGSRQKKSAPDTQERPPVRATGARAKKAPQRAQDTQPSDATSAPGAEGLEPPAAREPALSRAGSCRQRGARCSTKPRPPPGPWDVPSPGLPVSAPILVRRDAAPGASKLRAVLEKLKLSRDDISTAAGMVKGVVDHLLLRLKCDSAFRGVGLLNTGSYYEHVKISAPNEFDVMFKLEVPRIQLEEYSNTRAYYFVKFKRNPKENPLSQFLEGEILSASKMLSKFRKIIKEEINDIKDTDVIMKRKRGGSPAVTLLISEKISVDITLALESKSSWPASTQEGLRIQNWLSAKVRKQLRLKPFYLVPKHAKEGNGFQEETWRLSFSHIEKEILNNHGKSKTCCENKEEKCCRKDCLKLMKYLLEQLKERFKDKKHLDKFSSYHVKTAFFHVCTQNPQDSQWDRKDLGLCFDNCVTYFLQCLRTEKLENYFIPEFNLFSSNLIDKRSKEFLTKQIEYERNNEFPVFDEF
A homogenous cGAS enzymatic assay was developed with fluorescence polarization (FP) and time-resolved Forster resonance energy transfer (TR-FRET) readouts (FIG. 2A-2D). The cGAS assay was used to screen 100,000 compounds with full-length human cGAS (FIG. 2E), resulting in the identification of the novel chemotype of the disclosure, two of which are further developed in a structure-driven hit-to-lead study (Table 3, below). The assay performance was robust, as indicated by respective Z and Z′ values of 0.59 and 0.63 in the screen; compounds with polarization values greater than three SDs from the mean were considered hits; a scatterplot from 10 plates (3,200 compounds) is shown in FIG. 2D.
Biochemical and biophysical analysis: Potency and MOA studies, including Mn^2+ sensitivity, are performed using the cGAS enzymatic assay. Dose response experiments are used to determine IC50 values under basal conditions (5 mM MgCl2, 100 μM ATP/GTP), and with the addition of physiological levels of Mn (0.2 mM) using human and mouse cGAS. Ligand optimization is driven by potency with the human enzyme; potency with mouse cGAS informs selection of an appropriate disease model for efficacy studies. Competition with ATP and GTP is assessed by comparing basal IC50 values to those in the presence of saturating ATP or GTP, and subsequently confirmed by measuring velocity vs. substrate at varying ATP or GTP levels. Inhibitor residence times (1/koff) are used as a key parameter for prioritizing compounds and driving SAR, because a longer residence time often results from an allosteric mechanism, and can also correlate with improved cellular activity. The cGAS enzymatic assay is used with the jump dilution method to measure residence times (inhibitor dissociation rates), as described for kinases using the very similar ADP assay. Biophysical methods, including SPR and TSA, are used as orthologous methods for residence time measurements and kd estimates.
A general note: TR-FRET usually uses a lanthanide donor and a delayed reading to cut background.

[1] abbreviates: with Mn^2+, read-out: Inhibition cGAS + Mn^2+.

Read-outs that look alike come from different tables or passages of the source.

In the case of `Cc1nc(N2C[C@@H](Nc3n[nH]cc3-c3ccccc3)CC2C(=O)O)c2oc3cc(F)ccc3c2n1` (stereo in doubt) [Compound 56, (2R,4S)-1-(7-fluoro-2-methylbenzofuro[3,2-d]pyrimidin-4-yl)-4-((4-phenyl-1H-pyrazol-3-yl)amino)pyrrolidine-2-carboxylic acid], the IC50 reads like this: under setting [1], 1 to 10 µM; (read-out: Inhibition cGAS) 0.5 to 1 µM.
As for `Cc1nc(NCC(=O)O)c2oc3ccccc3c2n1` [Compound 2, (2-methylbenzofuro[3,2-d]pyrimidin-4-yl)glycine], the IC50 was above 10 µM under setting [1] and 1 to 10 µM (read-out: Inhibition cGAS).
Turning to `C[C@H](Nc1nc(-c2ccccc2)nc2c1oc1ccccc12)C(=O)O` [Compound 3, (2-phenylbenzofuro[3,2-d]pyrimidin-4-yl)-L-alanine], the IC50 runs as follows: under setting [1], above 10 µM; (read-out: Inhibition cGAS) 1 to 10 µM.
In the same order, the values of `O=C(O)[C@@H]1CCCN1c1ncnc2c1oc1ccccc12` [Compound 4, benzofuro[3,2-d]pyrimidin-4-yl-L-proline] are above 10 µM and 1 to 10 µM.
As for `O=C(O)CNc1nc(-c2ccccc2)nc2c1oc1ccccc12` [Compound 5, (2-phenylbenzofuro[3,2-d]pyrimidin-4-yl)glycine], the IC50 under setting [1] is above 10 µM and the IC50 (read-out: Inhibition cGAS) lay in the range of 1 to 10 µM.
In the same order, the values of `O=C(O)C1CCCN(c2ncnc3c2oc2ccccc23)C1` (centres unmarked) [Compound 6, 1-(benzofuro[3,2-d]pyrimidin-4-yl)piperidine-3-carboxylic acid] are above 10 µM and above 10 µM.
In the same order, the values of `CCc1nc(N2CCC[C@H]2C(=O)O)c2oc3ccccc3c2n1` [Compound 7, (2-ethylbenzofuro[3,2-d]pyrimidin-4-yl)-L-proline] are 1 to 10 µM and 1 to 10 µM.
For the compound `O=C(O)[C@@H]1CCCN1c1nc(C2CC2)nc2c1oc1ccccc12` [Compound 8, (2-cyclopropylbenzofuro[3,2-d]pyrimidin-4-yl)-L-proline], the IC50 is above 10 µM under setting [1] and 1 to 10 µM (read-out: Inhibition cGAS).
Consider `CC(C)c1nc(N2CCC[C@H]2C(=O)O)c2oc3ccccc3c2n1` [Compound 9, (2-isopropylbenzofuro[3,2-d]pyrimidin-4-yl)-L-proline], for which the IC50 reads like this: under setting [1], above 10 µM; (read-out: Inhibition cGAS) 1 to 10 µM.
Regarding `O=C(O)[C@@H]1CCCN1c1nc(C2CCCCC2)nc2c1oc1ccccc12` [Compound 10, (2-cyclohexylbenzofuro[3,2-d]pyrimidin-4-yl)-L-proline], the IC50 was above 10 µM under setting [1] and above 10 µM (read-out: Inhibition cGAS).
`O=C(O)[C@@H]1CCCN1c1nc(C2CCC2)nc2c1oc1ccccc12` [Compound 11, (2-cyclobutylbenzofuro[3,2-d]pyrimidin-4-yl)-L-proline]: the IC50 is, setting by setting: under setting [1], above 10 µM; (read-out: Inhibition cGAS) 1 to 10 µM.
In the case of `O=C(O)[C@@H]1CCCN1c1nc(C2CCCC2)nc2c1oc1ccccc12` [Compound 12, (2-cyclopentylbenzofuro[3,2-d]pyrimidin-4-yl)-L-proline], the IC50 reads like this: under setting [1], above 10 µM; (read-out: Inhibition cGAS) above 10 µM.
Consider `O=C(O)[C@@H]1CCCN1c1nc(-c2ccccc2)nc2c1oc1ccccc12` [Compound 13, (2-phenylbenzofuro[3,2-d]pyrimidin-4-yl)-L-proline], for which the IC50 under setting [1] is above 10 µM and the IC50 (read-out: Inhibition cGAS) is above 10 µM.
Take `CCc1nc(N2CCC[C@H]2C(=O)NS(=O)(=O)N(C)C)c2oc3ccccc3c2n1` [Compound 14, (S)-N-(N,N-dimethylsulfamoyl)-1-(2-ethylbenzofuro[3,2-d]pyrimidin-4-yl)pyrrolidine-2-carboxamide]: the IC50 under setting [1] was above 10 µM and the IC50 (read-out: Inhibition cGAS) is above 10 µM.
Regarding `CCc1nc(N(C)CC(=O)O)c2oc3ccccc3c2n1` [Compound 16, N-(2-ethylbenzofuro[3,2-d]pyrimidin-4-yl)-N-methylglycine], the IC50 runs as follows: under setting [1], 1 to 10 µM; (read-out: Inhibition cGAS) 1 to 10 µM.
`CCc1nc(N(C)[C@@H](C)C(=O)O)c2oc3ccccc3c2n1` [Compound 17, N-(2-ethylbenzofuro[3,2-d]pyrimidin-4-yl)-N-methyl-L-alanine]: the IC50 is above 10 µM under setting [1] and 1 to 10 µM (read-out: Inhibition cGAS).
In the same order, the values of `O=C(O)[C@@H]1CCCN1c1nc(-c2ccncc2)nc2c1oc1ccccc12` [Compound 18, (2-(pyridin-4-yl)benzofuro[3,2-d]pyrimidin-4-yl)-L-proline] are above 10 µM and above 10 µM.
In the case of `CCc1nc(N2CC[C@H]2C(=O)O)c2oc3ccccc3c2n1` [Compound 19, (S)-1-(2-ethylbenzofuro[3,2-d]pyrimidin-4-yl)azetidine-2-carboxylic acid], the IC50 under setting [1] lay in the range of 1 to 10 µM and the IC50 (read-out: Inhibition cGAS) fell in the range of 1 to 10 µM.
As to `COc1nc(N2CCC[C@H]2C(=O)O)c2oc3ccccc3c2n1` [Compound 20, (2-methoxybenzofuro[3,2-d]pyrimidin-4-yl)-L-proline], the IC50 reads like this: under setting [1], 1 to 10 µM; (read-out: Inhibition cGAS) 0.5 to 1 µM.
For `C[C@H]1C[C@@H](C(=O)O)N(c2nc(-c3ccccc3)nc3c2oc2ccccc23)C1` [Compound 21, (2S,4S)-4-methyl-1-(2-phenylbenzofuro[3,2-d]pyrimidin-4-yl)pyrrolidine-2-carboxylic acid], the IC50 by setting is: under setting [1], above 10 µM; (read-out: Inhibition cGAS) 1 to 10 µM.
Regarding `N#Cc1nc(N2CCC[C@H]2C(=O)O)c2oc3ccccc3c2n1` [Compound 22, (2-cyanobenzofuro[3,2-d]pyrimidin-4-yl)-L-proline], the IC50 under setting [1] was in the range of 1 to 10 µM and the IC50 (read-out: Inhibition cGAS) is 1 to 10 µM.
`CO[C@H]1C[C@@H](C(=O)O)N(c2nc(C)nc3c2oc2ccccc23)C1` [Compound 23, (2S,4S)-4-methoxy-1-(2-methylbenzofuro[3,2-d]pyrimidin-4-yl)pyrrolidine-2-carboxylic acid]: the IC50 runs as follows: under setting [1], above 10 µM; (read-out: Inhibition cGAS) 1 to 10 µM.
In the case of `Cc1nc(N[C@@H](CCC(=O)O)C(=O)O)c2oc3ccccc3c2n1` [Compound 24, (2-methylbenzofuro[3,2-d]pyrimidin-4-yl)glutamic acid], the IC50 reads like this: under setting [1], above 10 µM; (read-out: Inhibition cGAS) 1 to 10 µM.
As for `Cc1nc(N2C[C@@H](Cc3nn[nH]n3)C[C@H]2C(=O)O)c2oc3ccccc3c2n1` [Compound 25, (2S,4R)-4-((1H-tetrazol-5-yl)methyl)-1-(2-methylbenzofuro[3,2-d]pyrimidin-4-yl)pyrrolidine-2-carboxylic acid], the IC50 (read-out: Inhibition cGAS) was below 0.1 µM.
Turning to `Cc1nc(N2C[C@@H](Nc3cc[nH]n3)C[C@H]2C(=O)O)c2oc3ccccc3c2n1` [Compound 26, (2S,4S)-4-((1H-pyrazol-3-yl)amino)-1-(2-methylbenzofuro[3,2-d]pyrimidin-4-yl)pyrrolidine-2-carboxylic acid], the IC50 (read-out: Inhibition cGAS) lay within 0.1 to 0.5 µM.
As for `Cc1nc(N2C[C@@H](Nc3n[nH]cc3C)C[C@H]2C(=O)O)c2oc3ccccc3c2n1` [Compound 27, (2S,4S)-4-((4-methyl-1H-pyrazol-3-yl)amino)-1-(2-methylbenzofuro[3,2-d]pyrimidin-4-yl)pyrrolidine-2-carboxylic acid], the IC50 (read-out: Inhibition cGAS) is 0.1 to 0.5 µM.
The same measure, in the same setting: then `Cc1nc(N2C[C@@H](NC(=O)C(C)(C)c3ccncc3)C[C@H]2C(=O)O)c2oc3ccccc3c2n1` [Compound 29, (2S,4S)-4-(2-methyl-2-(pyridin-4-yl)propanamido)-1-(2-methylbenzofuro[3,2-d]pyrimidin-4-yl)pyrrolidine-2-carboxylic acid], with 0.1 to 0.5 µM.
Take `Cc1nc(N2C[C@@H](NC(=O)Cc3cc[nH]n3)C[C@H]2C(=O)O)c2oc3ccccc3c2n1` [Compound 31, (2S,4S)-4-(2-(1H-pyrazol-3-yl)acetamido)-1-(2-methylbenzofuro[3,2-d]pyrimidin-4-yl)pyrrolidine-2-carboxylic acid]: the “Inhibition cGAS” value was “B, D”.
For the compound `Cc1nc(N2C[C@@H](NC(=O)Cc3cn[nH]c3)C[C@H]2C(=O)O)c2oc3ccccc3c2n1` [Compound 32, (2S,4S)-4-(2-(1H-pyrazol-4-yl)acetamido)-1-(2-methylbenzofuro[3,2-d]pyrimidin-4-yl)pyrrolidine-2-carboxylic acid], for the setting “read-out: Inhibition cGAS”, the IC50 lay within 0.5 to 1 µM.
For `Cc1nc(N2C[C@@H](NC(=O)Cc3ccc(N)nc3)C[C@H]2C(=O)O)c2oc3ccccc3c2n1` [Compound 33, (2S,4S)-4-(2-(6-aminopyridin-3-yl)acetamido)-1-(2-methylbenzofuro[3,2-d]pyrimidin-4-yl)pyrrolidine-2-carboxylic acid], where the note is “read-out: Inhibition cGAS”, the IC50 is 0.1 to 0.5 µM.
